Laboratory results taken from US10766869B2, “Triazoles for the treatment of demyelinating dieases” (Vertex Pharmaceuticals Incorporated, priority 2015, dated 2020).
Read-outs that look alike come from different tables or passages of the source.

Tested on: primary rat mixed cortical cells
Test: In vitro myelination assay (MBP positive myelin strands, fold myelin pixels above background)
Format: cell-based
Conditions: Rattus norvegicus; for fold induction at 1 µM: 1.0 μM compound; for fold induction at 10 µM: 10.0 μM compound
Summary of the method: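 P1 rat cortical cells (neurons, OPCs, oligodendrocytes, astrocytes, microglia) were cultured 14 days at 37 °C with compound, with half-medium changes containing 1× compound on days 6 and 10. Fixed cells were immunostained for MBP and imaged at 10×. Total MBP myelin pixels per well were expressed as fold above no-compound baseline at 1.0 μM and 10.0 μM.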

[1] = read-out: Fold myelin pixels above background relative to baseline of no added compound
[2] = relative to baseline of no added compound, read-out: Fold myelin pixels above background
[3] = relative to baseline of no added compound, read-out: Fold myelin pixels above background, 1.0 μM
[4] = relative to baseline of no added compound, read-out: Fold myelin pixels above background, 10.0 μM

[2H]C1([2H])OC([2H])([2H])C([2H])([2H])N(c2cc(C)cc(Nc3ncn(-c4cc(F)cc(F)c4)n3)c2)C1([2H])[2H] [Compound 982, 1-(3,5-difluorophenyl)-N-[3-methyl-5-(2,2,3,3,5,5,6,6-octadeuteriomorpholin-4-yl)phenyl]-1,2,4-triazol-3-amine]
fold induction at 1 µM [1]: 10 to 100
fold induction at 10 µM [1]: ≤ 1

Cc1cc(Nc2ncn(-c3cncc(F)c3)n2)cc(N2CCN(C)CC2)c1 [Compound 387, 1-(5-fluoro-3-pyridyl)-N-[3-methyl-5-(4-methylpiperazin-1-yl)phenyl]-1,2,4-triazol-3-amine]
fold induction at 1 µM [2]: 10 to 100
fold induction at 10 µM [2]: 100 to 1000

Cc1cc(Nc2ncn(-c3cc(F)cc(F)c3)n2)cc(NC2CCOC2)c1 (stereo not shown) [Compound 8, N3-[1-(3,5-difluorophenyl)-1,2,4-triazol-3-yl]-5-methyl-N1-tetrahydrofuran-3-yl-benzene-1,3-diamine]
fold induction at 1 µM [3]: 100 to 1000
fold induction at 10 µM [4]: 1 to 10

Cc1cc(Nc2ncn(-c3cc(F)cc(NCCO)c3)n2)cc(N2CC(F)C2)c1 [Compound 852, 2-[3-fluoro-5-[3-[3-(3-fluoroazetidin-1-yl)-5-methyl-anilino]-1,2,4-triazol-1-yl]anilino]ethanol]
fold induction at 1 µM [1]: 1 to 10
fold induction at 10 µM [1]: ≤ 1

COCC1CCN(c2cc(C)cc(Nc3ncn(-c4cc(F)cc(F)c4)n3)c2)CC1 [Compound 162, 1-(3,5-difluorophenyl)-N-[3-[4-(methoxymethyl)-1-piperidyl]-5-methyl-phenyl]-1,2,4-triazol-3-amine]
fold induction at 1 µM [3]: ≤ 1
fold induction at 10 µM [4]: ≤ 1

Cc1cc(Nc2ncn(-c3cc(F)cc(F)c3)n2)cc(NC2CCCN(CCF)C2)c1 (stereo not shown) [Compound 873, N3-[1-(3,5-difluorophenyl)-1,2,4-triazol-3-yl]-N1-[1-(2-fluoroethyl)-3-piperidyl]-5-methyl-benzene-1,3-diamine]
fold induction at 1 µM [1]: 1 to 10
fold induction at 10 µM [1]: ≤ 1

Cc1cc(Nc2ncn(-c3ccccc3)n2)cc(N2CCN(CC(C)(C)O)CC2)c1 [Compound 461, 2-methyl-1-[4-[3-methyl-5-[(1-phenyl-1,2,4-triazol-3-yl)amino]phenyl]piperazin-1-yl]propan-2-ol]
fold induction at 1 µM [2]: 1000 to 10000
fold induction at 10 µM [2]: ≤ 1

Cc1cc(Nc2ncn(-c3cncc(F)c3)n2)cc(N2CCCC2)c1 [Compound 320, 1-(5-fluoro-3-pyridyl)-N-(3-methyl-5-pyrrolidin-1-yl-phenyl)-1,2,4-triazol-3-amine]
fold induction at 1 µM [3]: 10 to 100
fold induction at 10 µM [4]: 100 to 1000

Cc1cc(Nc2ncn(-c3cc(F)cc(F)c3)n2)cc([C@@H]2CCN(C3COC3)C2)c1 (single isomer, unassigned) [Compound 92]
fold induction at 1 µM [3]: 1000 to 10000
fold induction at 10 µM [4]: 100 to 1000

Fc1cc(F)cc(-n2cnc(Nc3cc(C4CC4)nc(N4CCCC4)c3)n2)c1 [Compound 170, 2-cyclopropyl-N-[1-(3,5-difluorophenyl)-1,2,4-triazol-3-yl]-6-pyrrolidin-1-yl-pyridin-4-amine]
fold induction at 1 µM [3]: 10 to 100
fold induction at 10 µM [4]: 100 to 1000

COc1c(C)cc(N2CCN(C3COC3)CC2)cc1Nc1ncn(-c2cnccn2)n1 [Compound 471, N-[2-methoxy-3-methyl-5-[4-(oxetan-3-yl)piperazin-1-yl]phenyl]-1-pyrazin-2-yl-1,2,4-triazol-3-amine]
fold induction at 1 µM [2]: 1 to 10
fold induction at 10 µM [2]: ≤ 1

Cc1cc(Nc2ncn(-c3cc(F)cc(F)c3)n2)cc(N2CCC3(CCO3)C2)c1 (stereo not shown) [Compound 901, 1-(3,5-difluorophenyl)-N-[3-methyl-5-(1-oxa-7-azaspiro[3.4]octan-7-yl)phenyl]-1,2,4-triazol-3-amine]
fold induction at 1 µM [1]: 1 to 10
fold induction at 10 µM [1]: ≤ 1

Cc1c(Nc2ncn(-c3ccccn3)n2)cc(N2CC(N3CCOCC3)C2)cc1OC(C)C [Compound 811, N-[3-isopropoxy-2-methyl-5-(3-morpholinoazetidin-1-yl)phenyl]-1-(2-pyridyl)-1,2,4-triazol-3-amine]
fold induction at 1 µM [1]: 1 to 10
fold induction at 10 µM [1]: 10 to 100

Cc1cc(Nc2ncn(-c3cc(F)cc(F)c3)n2)cc(N2CC(N3CC4CC(C3)O4)C2)c1 [Compound 742, 1-(3,5-difluorophenyl)-N-[3-methyl-5-[3-(6-oxa-3-azabicyclo[3.1.1]heptan-3-yl)azetidin-1-yl]phenyl]-1,2,4-triazol-3-amine]
fold induction at 1 µM [2]: 10 to 100
fold induction at 10 µM [2]: ≤ 1

Cc1cc(Nc2ncn(-c3ccc(F)c(F)c3)n2)cc(O[C@@H]2CCN(C3COC3)C2)c1 [Compound 46, 1-(3,4-difluorophenyl)-N-[3-methyl-5-[(3R)-1-(oxetan-3-yl)pyrrolidin-3-yl]oxy-phenyl]-1,2,4-triazol-3-amine]
fold induction at 1 µM [3]: 1000 to 10000
fold induction at 10 µM [4]: 1 to 10

Cc1cc(NC2CCOCC2)cc(Nc2ncn(-c3cc(F)cc(F)c3)n2)c1F [Compound 1021, N3-[1-(3,5-difluorophenyl)-1,2,4-triazol-3-yl]-4-fluoro-5-methyl-N1-tetrahydropyran-4-yl-benzene-1,3-diamine]
fold induction at 1 µM [1]: 1 to 10
fold induction at 10 µM [1]: ≤ 1

NC1CN(c2cc(F)cc(Nc3ncn(-c4ccc(F)cc4F)n3)c2)C1 [Compound 283, N-[3-(3-aminoazetidin-1-yl)-5-fluoro-phenyl]-1-(2,4-difluorophenyl)-1,2,4-triazol-3-amine]
fold induction at 1 µM [3]: ≤ 1
fold induction at 10 µM [4]: ≤ 1

Cc1cc(Nc2ncn(-c3cc(F)cc(F)c3)n2)cc(NC2CCOC(C)(C)C2)c1 (stereo not shown) [Compound 970, N3-[1-(3,5-difluorophenyl)-1,2,4-triazol-3-yl]-N1-(2,2-dimethyltetrahydropyran-4-yl)-5-methyl-benzene-1,3-diamine]
fold induction at 1 µM [1]: 10 to 100
fold induction at 10 µM [1]: ≤ 1

CC(C)(C)OC(=O)N1CCN(c2cc(C(F)(F)F)cc(Nc3ncn(-c4cc(F)cc(F)c4)n3)n2)CC1 [Compound 557, tert-butyl 4-[6-[[1-(3,5-difluorophenyl)-1,2,4-triazol-3-yl]amino]-4-(trifluoromethyl)-2-pyridyl]piperazine-1-carboxylate]
fold induction at 1 µM [2]: ≤ 1
fold induction at 10 µM [2]: ≤ 1

Cc1cc(Nc2ncn(-c3cncc(F)c3)n2)cc(N2CCN(C3COC3)CC2)c1 [Compound 24, 1-(5-fluoro-3-pyridyl)-N-[3-methyl-5-[4-(oxetan-3-yl)piperazin-1-yl]phenyl]-1,2,4-triazol-3-amine]
fold induction at 1 µM [3]: 10 to 100
fold induction at 10 µM [4]: 100 to 1000

CCc1cc(Nc2ncn(-c3ccnc(C)n3)n2)cc(N2CCN(C3COC3)CC2)c1 [Compound 91, N-[3-ethyl-5-[4-(oxetan-3-yl)piperazin-1-yl]phenyl]-1-(2-methylpyrimidin-4-yl)-1,2,4-triazol-3-amine]
fold induction at 1 µM [3]: ≤ 1
fold induction at 10 µM [4]: 100 to 1000

Cc1cc(Nc2ncn(-c3cc(F)cc(F)c3)n2)cc(N2CCN(CC(=O)O)CC2)c1 [Compound 125, 2-[4-[3-[[1-(3,5-difluorophenyl)-1,2,4-triazol-3-yl]amino]-5-methyl-phenyl]piperazin-1-yl]acetic acid]
fold induction at 1 µM [3]: 10 to 100
fold induction at 10 µM [4]: 1 to 10

Cc1cc(Nc2ncn(-c3ccc(F)c(F)c3)n2)c(F)c(OC2CCOC2)c1 (single isomer, unassigned) [Compound 1009, 1-(3,4-difluorophenyl)-N-(2-fluoro-5-methyl-3-tetrahydrofuran-3-yloxy-phenyl)-1,2,4-triazol-3-amine]
fold induction at 1 µM [1]: 10 to 100
fold induction at 10 µM [1]: 1 to 10

Cc1cc(Nc2ncn(-c3cc(F)cc(F)c3)n2)cc(N2CCC(OC3CCOC3)CC2)c1 (stereo not shown) [Compound 1014, 1-(3,5-difluorophenyl)-N-[3-methyl-5-(4-tetrahydrofuran-3-yloxy-1-piperidyl)phenyl]-1,2,4-triazol-3-amine]
fold induction at 1 µM [1]: 1 to 10
fold induction at 10 µM [1]: 1 to 10

Cc1cc(Nc2ncn(-c3cccc(Cl)n3)n2)cc(N2CCCC2)c1 [Compound 488, 1-(6-chloro-2-pyridyl)-N-(3-methyl-5-pyrrolidin-1-yl-phenyl)-1,2,4-triazol-3-amine]
fold induction at 1 µM [2]: ≤ 1
fold induction at 10 µM [2]: ≤ 1

Cc1cc(Nc2ncn(-c3cc(F)cc(OC(C)C)c3)n2)cc(N2CCN(C3COC3)CC2)c1 [Compound 415, 1-(3-fluoro-5-isopropoxy-phenyl)-N-[3-methyl-5-[4-(oxetan-3-yl)piperazin-1-yl]phenyl]-1,2,4-triazol-3-amine]
fold induction at 1 µM [2]: 100 to 1000
fold induction at 10 µM [2]: ≤ 1

COc1cccc(-n2cnc(Nc3cc(Cl)nc(N4CCOCC4)c3)n2)c1 [Compound 145, 2-chloro-N-[1-(3-methoxyphenyl)-1,2,4-triazol-3-yl]-6-morpholino-pyridin-4-amine]
fold induction at 1 µM [3]: 10 to 100
fold induction at 10 µM [4]: 10 to 100

Cc1c(Nc2ncn(-c3cc(F)cc(F)c3)n2)cc(N2CC(N3CCOCC3)C2)cc1OC(C)C [Compound 641, 1-(3,5-difluorophenyl)-N-[3-isopropoxy-2-methyl-5-(3-morpholinoazetidin-1-yl)phenyl]-1,2,4-triazol-3-amine]
fold induction at 1 µM [2]: 10 to 100
fold induction at 10 µM [2]: 1 to 10

Cc1cc(Nc2ncn(-c3cc(F)cc(F)c3)n2)cc(N2CCN(C(C)(CO)CO)CC2)c1 [Compound 311, 2-[4-[3-[[1-(3,5-difluorophenyl)-1,2,4-triazol-3-yl]amino]-5-methyl-phenyl]piperazin-1-yl]-2-methyl-propane-1,3-diol]
fold induction at 1 µM [3]: ≤ 1
fold induction at 10 µM [4]: ≤ 1
